Measurements reported in ChEMBL document CHEMBL4251646, “Improved antibacterial activity of a marine peptide-N2 against intracellular Salmonella typhimurium by conjugating with cell-penetrating peptides-bLFcin6/Tat11” (Eur J Med Chem, 2018).
Converted amounts (≈) assume the structure as drawn.

Experiments:
Salmonella typhimurium [1] = test: Antibacterial activity against Salmonella typhimurium ATCC 14028 at pH 7 after 16 to 18 hrs by broth microdilution method; type: functional, Salmonella enterica subsp. enterica serovar Typhimurium; settings: Salmonella enterica
Salmonella typhimurium [2] = test: Antibacterial activity against Salmonella typhimurium ATCC 14028 at pH 5 after 16 to 18 hrs by broth microdilution method; type: functional, Salmonella enterica subsp. enterica serovar Typhimurium; settings: Salmonella enterica
Salmonella typhimurium [3] = test: Antibacterial activity against Salmonella typhimurium ATCC 14028 assessed as survival at 10 uM after 3 hrs by broth microdilution method; type: functional, Salmonella enterica subsp. enterica serovar Typhimurium
Salmonella typhimurium [4] = test: Bactericidal activity against Salmonella typhimurium ATCC 14028 at 10 uM within 3 to 9 hrs; type: functional, Salmonella enterica subsp. enterica serovar Typhimurium
Salmonella typhimurium [5] = test: Bactericidal activity against Salmonella typhimurium ATCC 14028 infected in mouse RAW264.7 cells assessed as log reduction in intracellular bacterial load at 10 uM after 10 hrs in presence of gentamycin; type: functional, Salmonella enterica subsp. enterica serovar Typhimurium
Salmonella typhimurium [6] = test: Bactericidal activity against Salmonella typhimurium ATCC 14028 infected in mouse RAW264.7 cells assessed as log reduction in intracellular bacterial load at 20 uM within 3 to 9 hrs in presence of gentamycin; type: functional, Salmonella enterica subsp. enterica serovar Typhimurium
Salmonella typhimurium [7] = test: Bactericidal activity against Salmonella typhimurium ATCC 14028 infected in mouse RAW264.7 cells assessed as log reduction in intracellular bacterial load at 50 uM within 3 to 9 hrs in presence of gentamycin; type: functional, Salmonella enterica subsp. enterica serovar Typhimurium
Salmonella typhimurium [8] = test: Bactericidal activity against Salmonella typhimurium ATCC 14028 infected in mouse RAW264.7 cells assessed as log reduction in intracellular bacterial load at 100 uM within 3 to 9 hrs in presence of gentamycin; type: functional, Salmonella enterica subsp. enterica serovar Typhimurium
[9] = Cytotoxicity against mouse RAW264.7 cells assessed as cell survival at 100 uM after 8 hrs by MTT assay; type: cell-based; settings: read-out: Survival
[10] = Drug internalization in mouse RAW264.7 cells at 1 uM using FITC-labeled test compound after 0.5 hrs by flow cytometry; type: ADME, cell-based; settings: raw264.7, 0.5 h
[11] = Drug uptake in mouse RAW264.7 cells at 5 uM using FITC-labeled test compound after 5 hrs by Hoechst 33342/FM 4-64 staining-based confocal microscopic analysis; type: ADME, cell-based; settings: raw264.7, 5 h
[12] = Drug internalization in mouse RAW264.7 cells at 1 uM using FITC-labeled test compound after 2 hrs by flow cytometry; type: ADME, cell-based; settings: raw264.7, 2 h
[13] = Drug internalization in mouse RAW264.7 cells using FITC-labeled test compound by flow cytometry; type: ADME, cell-based
[14] = Drug uptake in mouse RAW264.7 cells at 5 uM using FITC-labeled test compound after 0.5 hrs by flow cytometry; type: ADME, cell-based; settings: raw264.7, 0.5 h
[15] = Drug uptake in mouse RAW264.7 cells at 5 uM using FITC-labeled test compound after 2 hrs by flow cytometry; type: ADME, cell-based; settings: raw264.7, 2 h

CC(C)[C@@H]1NC(=O)[C@H](C)NC(=O)[C@H](CC(N)=O)NC(=O)[C@H](CCCNC(=N)N)NC(=O)[C@H](Cc2ccc(O)cc2)NC(=O)[C@H](C(C)C)NC(=O)[C@@H]2CSSC[C@H](NC(=O)[C@H](C(C)C)NC(=O)[C@H](CCCNC(=N)N)NC1=O)C(=O)N[C@@H](Cc1cnc[nH]1)C(=O)N[C@@H](CCCNC(=N)N)C(=O)N[C@@H](CCCNC(=N)N)C(=O)N[C@H](C(=O)N[C@@H](CC(N)=O)C(=O)O)CSSC[C@H](NC(=O)[C@H](Cc1ccccc1)NC(=O)[C@H](C)NC(=O)[C@H](CCCNC(=N)N)NC(=O)[C@H](CCCNC(=N)N)NC(=O)[C@H](CCCNC(=N)N)NC(=O)[C@H](CCC(N)=O)NC(=O)[C@H](CCCNC(=N)N)NC(=O)[C@H](CCCNC(=N)N)NC(=O)[C@H](CCCCN)NC(=O)[C@H](CCCCN)NC(=O)[C@H](CCCNC(=N)N)NC(=O)CNC(=O)[C@@H](N)Cc1ccc(O)cc1)C(=O)N[C@@H](Cc1c[nH]c3ccccc13)C(=O)N[C@@H](CC(N)=O)C(=O)N[C@@H](C(C)C)C(=O)N2
MIC (Salmonella typhimurium [1]): 1.94 µM (≈ 7.97 µg/mL)
MIC (Salmonella typhimurium [2]): 3.89 µM (≈ 16 µg/mL)
Survival (Salmonella typhimurium [3]): 1.5 ×10⁵ CFU/ml
Activity (Salmonella typhimurium [4]): 48.28 - 98.85%
log(activity) (Salmonella typhimurium [5]): 1.19
log(activity) (Salmonella typhimurium [6]): 1.57
log(activity) (Salmonella typhimurium [7]): 3.26

CC(C)[C@@H]1NC(=O)[C@H](C)NC(=O)[C@H](CC(N)=O)NC(=O)[C@H](CCCNC(=N)N)NC(=O)[C@H](Cc2ccc(O)cc2)NC(=O)[C@H](C(C)C)NC(=O)[C@@H]2CSSC[C@H](NC(=O)[C@H](C(C)C)NC(=O)[C@H](CCCNC(=N)N)NC1=O)C(=O)N[C@@H](Cc1cnc[nH]1)C(=O)N[C@@H](CCCNC(=N)N)C(=O)N[C@@H](CCCNC(=N)N)C(=O)N[C@H](C(=O)N[C@@H](CC(N)=O)C(=O)O)CSSC[C@H](NC(=O)[C@H](Cc1ccccc1)NC(=O)[C@H](C)NC(=O)[C@H](CCCNC(=N)N)NC(=O)[C@H](Cc1c[nH]c3ccccc13)NC(=O)[C@H](CCC(N)=O)NC(=O)[C@H](Cc1c[nH]c3ccccc13)NC(=O)[C@H](CCCNC(=N)N)NC(=O)[C@@H](N)CCCNC(=N)N)C(=O)N[C@@H](Cc1c[nH]c3ccccc13)C(=O)N[C@@H](CC(N)=O)C(=O)N[C@@H](C(C)C)C(=O)N2
MIC (Salmonella typhimurium [1]): 2.25 µM (≈ 7.95 µg/mL)
MIC (Salmonella typhimurium [2]): 9 µM (≈ 31.8 µg/mL)
Survival (Salmonella typhimurium [3]): 1.9 ×10⁵ CFU/ml
Activity (Salmonella typhimurium [4]): 34.22 - 91.35%
log(activity) (Salmonella typhimurium [7]): 1.63
log(activity) (Salmonella typhimurium [8]): 2.1

CC(C)[C@@H]1NC(=O)[C@H](C)NC(=O)[C@H](CC(N)=O)NC(=O)[C@H](CCCNC(=N)N)NC(=O)[C@H](Cc2ccc(O)cc2)NC(=O)[C@H](C(C)C)NC(=O)[C@@H]2CSSC[C@H](NC(=O)[C@H](C(C)C)NC(=O)[C@H](CCCNC(=N)N)NC1=O)C(=O)N[C@@H](Cc1c[nH]cn1)C(=O)N[C@@H](CCCNC(=N)N)C(=O)N[C@@H](CCCNC(=N)N)C(=O)N[C@H](C(=O)N[C@@H](CC(N)=O)C(=O)O)CSSC[C@H](NC(=O)[C@H](Cc1ccccc1)NC(=O)[C@H](C)N)C(=O)N[C@@H](Cc1c[nH]c3ccccc13)C(=O)N[C@@H](CC(N)=O)C(=O)N[C@@H](C(C)C)C(=O)N2
viability at 8 h, 100 µM [9]: 103%
Drug uptake [10]: 17.3%
Drug uptake [11]: Not Active
Drug uptake [12]: 31.4%
Drug uptake [13]: Dose-dependent effect and Tde
Drug uptake [14]: 50%
Drug uptake [15]: 93.4%
